Where “and” joins values, the source holds several entries; their conditions need not be identical. Identical values can stand only once.

The test system of experiment [1] is HeLa. The experiment is described as follows: MTT cytotoxicity assay, HeLa cervical cancer cells. Particulars: Homo sapiens, 48 h, read-out: IC50, cytotoxic activity against HeLa. Format: cell-based.
Experiment [2] relates to T47D. As to the kind of experiment: MTT cytotoxicity assay, T47D breast cancer cells. In kind it is cell-based. Particulars: Homo sapiens, 48 h, read-out: IC50, cytotoxic activity against T47D.

As for `COc1cccc2c1C(=O)c1c(O)c3c(c(O)c1C2=O)C[C@@](O)(C(=O)CO)C[C@@H]3O[C@H]1C[C@H](N)[C@H](O)[C@H](C)O1` [DOX, doxorubicin], the IC50 in experiment [1] is 3.38 µg/mL and 6.22 µM; in experiment [2] it was 0.17 µg/mL and 310 nM.

The record behind these values is publication PMC11492916 (OncoTargets and Therapy, 2024).
